# Experimental data taken from patent EP4603105A1, “PHARMACEUTICAL COMPOSITION CONTAINING CYCLIC COMPOUND HAVING SELECTIVE KRAS INHIBITORY EFFECT AGAINST HRAS AND NRAS” (CHUGAI SEIYAKU KABUSHIKI KAISHA, priority 2022, dated 2024).
# Where a SMILES comes first, the peptide text is derived from it. Bridges are numbered along the chain shown (N, C = ends). [ ]: non-standard residue; d: D form. The star is where a group is joined. hPhe(3,5-F2-4-CF3) = N[C@@H](CCc1cc(F)c(C(F)(F)F)c(F)c1)C(=O)O; hPhe(3-Cl-4-CF3) = N[C@@H](CCc1ccc(C(F)(F)F)c(Cl)c1)C(=O)O; NPrPhe(4-CF3) = CCCN[C@@H](Cc1ccc(C(F)(F)F)cc1)C(=O)O; NMeGly(cPent) = CN[C@H](C(=O)O)C1CCCC1; Hyp = O=C(O)[C@@H]1C[C@@H](O)CN1; NMeD = CN[C@@H](CC(=O)O)C(=O)O; NMeL = CN[C@@H](CC(C)C)C(=O)O; αMeS = C[C@](N)(CO)C(=O)O; Morpholide = C1CN(*)CCO1; NMeA = CN[C@@H](C)C(=O)O; Aze = O=C(O)[C@@H]1CCN1; Ac4c = NC1(C(=O)O)CCC1; Sar = CNCC(=O)O; Allyl = C=CC*
# Assays:
# [1] = biological target: GDP-bound NRAS wild-type protein (Homo sapiens, UniProt P01111); experiment: Binding to NRAS by surface plasmon resonance (SPR), KD and KD ratio to KRAS
# Summary of the method: (§1)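 Measured at 30°C: SPR with GDP-loaded, E. coli-expressed biotin-Avi RAS captured (~100–300 RU), ascending 75 s compound injections, HBS pH 7.4 with GDP, MgCl2, 4% DMSO. KD from 1:1 fit.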
# HRAS wild-type protein = HRAS wild-type protein (Homo sapiens, UniProt P01112); experiment: Binding to HRAS by surface plasmon resonance (SPR), KD and KD ratio to KRAS
# Summary of the method: as §1
# [2] = tested on: human lung cancer strain NCI-H441; assay type: cell-based
# Summary of the method: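 Signal came from […] measured per well once the reagent was added. Beforehand, cells were cultured at 37°C and 5% carbon dioxide on a compound series serially diluted in dimethyl sulfoxide.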
# [3] = ratio of KD for GDP-bound NRAS wild-type protein to KD for KRAS
# [4] = ratio of KD for HRAS wild-type protein to KD for KRAS
# [5] = ratio of KD value for GDP-bound NRAS wild-type protein to KD value for KRAS (SPR)
# [6] = ratio of KD value for HRAS wild-type protein to KD value for KRAS (SPR)
# [7] = ratio of the KD value with respect to GDP-bound NRAS wild-type protein to the KD value with respect to KRAS
# [8] = ratio of the KD value with respect to HRAS wild-type protein to the KD value with respect to KRAS
# HRAS wild-type protein, sequence (P01112 whole entry): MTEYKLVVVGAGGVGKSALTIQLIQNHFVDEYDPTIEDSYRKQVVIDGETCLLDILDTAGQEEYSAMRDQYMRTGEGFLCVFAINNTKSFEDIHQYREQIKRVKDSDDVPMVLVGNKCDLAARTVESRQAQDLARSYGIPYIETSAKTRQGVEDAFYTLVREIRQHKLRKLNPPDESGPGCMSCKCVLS
# GDP-bound NRAS wild-type protein, sequence (P01111 whole entry): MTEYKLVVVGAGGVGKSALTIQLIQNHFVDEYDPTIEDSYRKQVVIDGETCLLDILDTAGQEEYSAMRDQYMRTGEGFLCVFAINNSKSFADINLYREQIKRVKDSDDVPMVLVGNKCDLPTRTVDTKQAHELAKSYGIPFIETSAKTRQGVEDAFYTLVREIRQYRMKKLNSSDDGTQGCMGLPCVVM
Structure (SMILES),"NRAS /KRAS [1, 3]",HRAS /KRAS (HRAS wild-type protein; [4]),IC50 [2] [nM],"NRAS /KRAS [1, 5]",HRAS /KRAS (HRAS wild-type protein; [6]),"NRAS /KRAS [1, 7]",HRAS /KRAS (HRAS wild-type protein; [8])
C#CC[C@H]1C(=O)N[C@@H]([C@@H](C)CC)C(=O)N(C)CC(=O)N(C)[C@H]2C/C=C\CCN(C2=O)[C@@H](Cc2ccc(C(F)(F)F)cc2)C(=O)N(C)CC(=O)N[C@@H](CCc2ccc(C(F)(F)F)c(OC)c2)C(=O)N2CC[C@H]2C(=O)NC2(CC(C)(C)C2)C(=O)N(C)[C@@H](C2CCCC2)C(=O)N(C)[C@H](C(=O)N(C)C)CC(=O)N1C [PP2909],B (a compound having 3 or more and less than 10 is denoted as B),B (a compound having 3 or more and less than 10 is denoted as B),61.3,,,,
CCO[C@@H]1C[C@H]2C(=O)NC3(CCC3)C(=O)N(C)[C@@H](C3CCCC3)C(=O)N(C)[C@H](C(=O)N(C)C)CC(=O)N(C)[C@@H](C(C)C)C(=O)N[C@@H]([C@@H](C)CC)C(=O)N(C)CC(=O)N(C)[C@H]3C/C=C\CCN(C3=O)[C@@H](Cc3ccc(C(F)(F)F)cc3)C(=O)N(C)CC(=O)N[C@@H](CCc3cc(F)c(C(F)(F)F)c(F)c3)C(=O)N2C1 [PP1109],A (a compound having 10 or more and less than 20 is denoted as A),B (a compound having 3 or more and less than 10 is denoted as B),17,,,,
CC[C@H](C)[C@@H]1NC(=O)[C@H](CC2CC2)N(C)C(=O)C[C@@H](C(=O)N(C)C)N(C)C(=O)[C@H](C2CCCC2)N(C)C(=O)C2(CCCC2)NC(=O)[C@@H]2CC(F)(F)CN2C(=O)[C@H](CCc2cc(F)c(C(F)(F)F)c(F)c2)NC(=O)CN(C)C(=O)[C@H](Cc2ccc(C(F)(F)F)cc2)N2CC/C=C\C[C@@H](C2=O)N(C)C(=O)CN(C)C1=O [PP1513],,,8.3,A (a compound having 10 or more and less than 20 is denoted as A),A (a compound having 10 or more and less than 20 is denoted as A),,
CCO[C@@H]1C[C@H]2C(=O)NC3(CCC3)C(=O)N(C)[C@@H](C(CC)CC)C(=O)N(C)[C@H](C(=O)N3CCOCC3)CC(=O)N(C)[C@@H](CC3CC3)C(=O)N[C@@H]([C@@H](C)CC)C(=O)N(C)CC(=O)N(C)[C@H]3C/C=C\CCN(C3=O)[C@@H](Cc3ccc(F)cc3C)C(=O)N(C)CC(=O)N[C@@H](CCc3cc(F)c(C(F)(F)F)c(F)c3)C(=O)N2C1 [PP1526],,,118,A (a compound having 10 or more and less than 20 is denoted as A),A (a compound having 10 or more and less than 20 is denoted as A),,
CCCN1C(=O)[C@@H]2CCN2C(=O)[C@H](C)N(C)C(=O)[C@H]([C@@H](C)CC)NC(=O)[C@H](CC(C)C)N(C)C(=O)C[C@@H](C(=O)N2CCOCC2)N(C)C(=O)[C@H](C2CCCC2)N(C)C(=O)C2(CCC2)NC(=O)[C@@H]2C[C@@H](OCC)CN2C(=O)[C@H](CCc2ccc(C(F)(F)F)c(Cl)c2)NC(=O)CN(C)C(=O)[C@@H]1Cc1ccc(C(F)(F)F)cc1 [PP0406] ([NMeL]I[NMeA][Aze][NPrPhe(4-CF3)][Sar][hPhe(3-Cl-4-CF3)][Hyp](Et)[Ac4c][NMeGly(cPent)][NMeD]-Morpholide; lactam N-11),,,2.5,,,C (A compound having a KD ratio of 0.1 or more and less than 3 is denoted as C),B (a compound having 3 or more and less than 10 is denoted as B)
"C=CCOC[C@]1(C)NC(=O)[C@@H]2CCCN2C(=O)[C@H](CCc2cc(F)c(C(F)(F)F)c(F)c2)NC(=O)CN(C)C(=O)[C@H](Cc2ccc(C(F)(F)F)cc2)N(CCC)C(=O)CN(C)C(=O)CN(C)C(=O)[C@H]([C@@H](C)CC)NC(=O)[C@H](CC(C)C)N(C)C(=O)C[C@@H](C(=O)N(C)C)N(C)C(=O)[C@H](C2CCCC2)N(C)C1=O [PP0742] ([NMeL]I[Sar][Sar][NPrPhe(4-CF3)][Sar][hPhe(3,5-F2-4-CF3)]P[αMeS](Allyl)[NMeGly(cPent)][NMeD]-NMe2; lactam N-11)",,,73.3,,,B (a compound having 3 or more and less than 10 is denoted as B),B (a compound having 3 or more and less than 10 is denoted as B)
CCO[C@@H]1C[C@H]2C(=O)NC3(CC(C)(C)C3)C(=O)N(C)[C@@H](C3CCCC3)C(=O)N(C)[C@H](C(=O)N(C)C)CC(=O)N(C)[C@H]3CCCCCc4ccc(cc4)C[C@@H](C(=O)N(C)CC(=O)N[C@@H](CCc4ccc(Cl)c(Cl)c4)C(=O)N2C1)N1CC/C=C\C[C@@H](C1=O)N(C)C(=O)CN(C)C(=O)[C@H]([C@@H](C)CC)NC3=O [PP3076],AA (a compound having 20 or more is denoted as AA),A (a compound having 10 or more and less than 20 is denoted as A),4.1,,,,
